Source: ChEMBL document CHEMBL1201862, “PubChem BioAssay data set” (2004)
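48-hour exposure; five concentrations; linearly interpolated endpoints. GI50: concentration for 50% inhibition of growth.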 Calls of active or inactive are those of the source. No stated cut-off is given here; in the data, active = GI50 up to about 1.1 µM and inactive = higher.

Key:
Test in all cases: NCI anticancer screen, dose series, 48 h
SK-MEL-28 = system: SK-MEL-28
COLO 205 = system: COLO 205
KM12 = system: KM12
SF-268 = system: SF-268
MDA-MB-231 = system: MDA-MB-231
SF-539 = system: SF-539
A498 = system: A498
HT-29 = system: HT-29
SK-MEL-2 = system: SK-MEL-2
TK-10 = system: TK-10
SNB-75 = system: SNB-75
OVCAR-8 = system: OVCAR-8
SK-MEL-5 = system: SK-MEL-5
IGROV-1 = system: IGROV-1
DMS-114 = system: DMS-114
LOX IMVI = system: LOX IMVI
RPMI-8226 = system: RPMI-8226
NCI-H23 = system: NCI-H23
BT-549 = system: BT-549
SR = system: SR

Measured: GI50

C=C(C)[C@@H]1CC[C@]2(C)CC[C@]3(C)[C@H](CC[C@@H]4[C@@]5(C)CC[C@H](O)C(C)(C)[C@@H]5CC[C@]43C)[C@@H]12 [LUPEOL]
inactive: SK-MEL-28 > 65.2 µM | COLO 205 > 100 µM | KM12 > 67 µM | SF-268 > 55.7 µM | MDA-MB-231 58.6 µM | SF-539 > 88.7 µM | A498 13.4 µM | HT-29 > 78.2 µM | SK-MEL-2 > 100 µM | TK-10 > 79.6 µM | SNB-75 38.2 µM | OVCAR-8 33.3 µM | SK-MEL-5 > 74 µM | IGROV-1 > 54.7 µM | DMS-114 65.8 µM | LOX IMVI 19.5 µM | RPMI-8226 53.7 µM | NCI-H23 61.5 µM | BT-549 15.6 µM | SR 42.8 µM

N=C(N)NCCCCCCC(=O)NC(O)C(=O)NCCCCNCCCN (stereo not given)
inactive: SK-MEL-28 > 750 µM | COLO 205 600 µM | KM12 577 µM | SF-268 > 750 µM | MDA-MB-231 > 750 µM | SF-539 > 628 µM | A498 > 750 µM | HT-29 > 750 µM | SK-MEL-2 505 µM | TK-10 > 750 µM | SNB-75 335 µM | OVCAR-8 641 µM | SK-MEL-5 > 750 µM | IGROV-1 665 µM | DMS-114 69.2 µM | LOX IMVI 605 µM | RPMI-8226 483 µM | NCI-H23 684 µM | BT-549 372 µM | SR 1280 µM

CC12CC(Br)(Br)C(=O)C3C1CCCC32
inactive: SK-MEL-28 2.9 µM | COLO 205 2.38 µM | KM12 13 µM | SF-268 10.2 µM | MDA-MB-231 3.24 µM | SF-539 11.9 µM | A498 16.8 µM | HT-29 5.47 µM | SK-MEL-2 13.9 µM | TK-10 6.27 µM | SNB-75 8.2 µM | OVCAR-8 4.07 µM | SK-MEL-5 5.55 µM | IGROV-1 10.1 µM | DMS-114 6.3 µM | LOX IMVI 2.68 µM | RPMI-8226 2.84 µM | NCI-H23 6.46 µM | BT-549 2.09 µM | SR 4.43 µM
